The source made the active and inactive calls. The calls are words filed in the database; no cut-off is given here.
What was measured:
[1] = Intrinsic clearance in rat hepatocytes at […] after 10 to 90 mins by LC-MS/MS analysis; format: ADME, cell-based, Hepatocyte; settings: read-out: CLH
[2] = Half life in Harlan nu/nu mouse at 10 mg/kg, po administered as single dose by LC-MS/MS analysis; format: ADME, organism-based; settings: in vivo
[3] = Cmax in Sprague-Dawley rat at 10 mg/kg, iv administered as single dose by LC-MS/MS analysis; format: ADME, organism-based; set-up: dose 10 mg/kg, route intravenous; settings: in vivo
[4] = Half life in Sprague-Dawley rat at 10 mg/kg, iv administered as single dose by LC-MS/MS analysis; format: ADME, organism-based; settings: in vivo
[5] = Cmax in Sprague-Dawley rat at 10 mg/kg, po administered as single dose by LC-MS/MS analysis; format: ADME, organism-based; set-up: dose 10 mg/kg, route oral; settings: in vivo
[6] = Tmax in Sprague-Dawley rat at 10 mg/kg, po administered as single dose by LC-MS/MS analysis; format: ADME, organism-based; settings: in vivo
[7] = Clearance in Beagle dog at 10 mg/kg, iv administered as single dose by LC-MS/MS analysis; format: ADME, organism-based, Canis lupus familiaris; settings: in vivo
NCI-H2228 = assay: Antiproliferative activity against human NCI-H2228 cells expressing ALK protein incubated for 72 hrs by cell titer-glo assay; settings: NCI-H2228, 72 h
[8] = Antiproliferative activity against human SR786 cells expressing ALK protein incubated for 72 hrs by cell titer-glo assay; format: functional, cell-based; settings: SR-786, 72 h
[9] = molecular target: Mast/stem cell growth factor receptor Kit (Homo sapiens, UniProt P10721); assay: Inhibition of KIT (unknown origin) in presence of gamma33-ATP
Chain of Mast/stem cell growth factor receptor Kit (P10721 whole entry): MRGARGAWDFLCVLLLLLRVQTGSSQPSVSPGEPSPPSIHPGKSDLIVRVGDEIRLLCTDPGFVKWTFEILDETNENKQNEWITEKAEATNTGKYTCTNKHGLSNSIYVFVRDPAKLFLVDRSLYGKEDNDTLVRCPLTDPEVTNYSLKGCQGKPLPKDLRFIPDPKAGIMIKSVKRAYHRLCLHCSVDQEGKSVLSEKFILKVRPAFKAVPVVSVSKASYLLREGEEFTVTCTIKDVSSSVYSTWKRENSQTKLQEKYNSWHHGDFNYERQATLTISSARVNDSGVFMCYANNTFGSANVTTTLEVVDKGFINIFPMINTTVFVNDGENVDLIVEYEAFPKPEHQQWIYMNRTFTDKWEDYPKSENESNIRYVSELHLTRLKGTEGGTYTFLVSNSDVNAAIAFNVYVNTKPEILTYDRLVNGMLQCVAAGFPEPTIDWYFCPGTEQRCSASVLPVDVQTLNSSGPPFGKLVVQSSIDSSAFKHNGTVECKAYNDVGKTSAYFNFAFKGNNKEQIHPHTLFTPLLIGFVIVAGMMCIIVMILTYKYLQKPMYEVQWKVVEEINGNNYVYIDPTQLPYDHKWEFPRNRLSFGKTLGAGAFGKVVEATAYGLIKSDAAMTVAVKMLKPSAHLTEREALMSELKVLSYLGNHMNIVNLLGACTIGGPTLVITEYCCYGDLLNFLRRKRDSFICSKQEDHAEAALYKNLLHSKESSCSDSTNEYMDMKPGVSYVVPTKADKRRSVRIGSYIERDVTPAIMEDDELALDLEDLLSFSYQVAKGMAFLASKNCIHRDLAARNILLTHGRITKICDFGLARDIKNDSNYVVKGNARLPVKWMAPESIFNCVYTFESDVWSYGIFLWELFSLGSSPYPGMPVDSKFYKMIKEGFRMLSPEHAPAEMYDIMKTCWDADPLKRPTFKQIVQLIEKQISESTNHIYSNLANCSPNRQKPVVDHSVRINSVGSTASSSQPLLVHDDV

[10] = molecular target: Serine/threonine-protein kinase NIM1 (Homo sapiens, UniProt Q8IY84); assay: Inhibition of NIM1 (unknown origin) in presence of gamma33-ATP
Chain of Serine/threonine-protein kinase NIM1 (Q8IY84 whole entry): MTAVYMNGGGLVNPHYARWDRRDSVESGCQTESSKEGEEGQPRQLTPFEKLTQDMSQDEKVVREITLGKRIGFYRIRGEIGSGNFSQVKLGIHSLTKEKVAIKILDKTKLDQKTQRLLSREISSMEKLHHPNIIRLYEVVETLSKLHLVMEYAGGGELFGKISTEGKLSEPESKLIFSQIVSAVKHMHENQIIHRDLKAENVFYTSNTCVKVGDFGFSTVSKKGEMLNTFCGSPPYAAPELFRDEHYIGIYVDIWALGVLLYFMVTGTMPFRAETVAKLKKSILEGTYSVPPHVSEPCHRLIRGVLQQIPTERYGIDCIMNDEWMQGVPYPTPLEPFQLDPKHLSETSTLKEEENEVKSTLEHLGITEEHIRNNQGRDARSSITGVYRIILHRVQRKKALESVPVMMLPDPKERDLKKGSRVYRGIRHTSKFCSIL

[11] = molecular target: T1, 3-phosphoinositide-dependent protein kinase 1 (Homo sapiens, UniProt O15530); assay: Inhibition of PDK1 (unknown origin) in presence of gamma33-ATP
T1 sequence (O15530 whole entry): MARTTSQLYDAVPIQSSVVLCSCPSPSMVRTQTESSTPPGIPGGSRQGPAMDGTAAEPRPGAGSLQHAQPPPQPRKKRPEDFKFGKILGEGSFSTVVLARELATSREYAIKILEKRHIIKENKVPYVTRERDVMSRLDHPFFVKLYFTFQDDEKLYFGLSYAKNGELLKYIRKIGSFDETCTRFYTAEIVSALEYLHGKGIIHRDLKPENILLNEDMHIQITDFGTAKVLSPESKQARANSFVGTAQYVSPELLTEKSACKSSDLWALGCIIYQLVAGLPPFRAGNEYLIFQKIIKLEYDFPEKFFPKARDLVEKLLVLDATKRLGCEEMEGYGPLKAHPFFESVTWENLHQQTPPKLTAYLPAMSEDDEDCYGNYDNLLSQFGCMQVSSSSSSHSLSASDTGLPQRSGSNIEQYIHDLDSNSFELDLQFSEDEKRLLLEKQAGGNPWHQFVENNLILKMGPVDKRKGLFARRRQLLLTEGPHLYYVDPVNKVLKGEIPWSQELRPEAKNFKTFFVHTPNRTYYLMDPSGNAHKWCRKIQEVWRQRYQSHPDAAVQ

[12] = molecular target: T2, Eukaryotic translation initiation factor 2-alpha kinase 3 (Homo sapiens, UniProt Q9NZJ5); assay: Inhibition of PERK (unknown origin) in presence of gamma33-ATP
T2 sequence (Q9NZJ5 whole entry): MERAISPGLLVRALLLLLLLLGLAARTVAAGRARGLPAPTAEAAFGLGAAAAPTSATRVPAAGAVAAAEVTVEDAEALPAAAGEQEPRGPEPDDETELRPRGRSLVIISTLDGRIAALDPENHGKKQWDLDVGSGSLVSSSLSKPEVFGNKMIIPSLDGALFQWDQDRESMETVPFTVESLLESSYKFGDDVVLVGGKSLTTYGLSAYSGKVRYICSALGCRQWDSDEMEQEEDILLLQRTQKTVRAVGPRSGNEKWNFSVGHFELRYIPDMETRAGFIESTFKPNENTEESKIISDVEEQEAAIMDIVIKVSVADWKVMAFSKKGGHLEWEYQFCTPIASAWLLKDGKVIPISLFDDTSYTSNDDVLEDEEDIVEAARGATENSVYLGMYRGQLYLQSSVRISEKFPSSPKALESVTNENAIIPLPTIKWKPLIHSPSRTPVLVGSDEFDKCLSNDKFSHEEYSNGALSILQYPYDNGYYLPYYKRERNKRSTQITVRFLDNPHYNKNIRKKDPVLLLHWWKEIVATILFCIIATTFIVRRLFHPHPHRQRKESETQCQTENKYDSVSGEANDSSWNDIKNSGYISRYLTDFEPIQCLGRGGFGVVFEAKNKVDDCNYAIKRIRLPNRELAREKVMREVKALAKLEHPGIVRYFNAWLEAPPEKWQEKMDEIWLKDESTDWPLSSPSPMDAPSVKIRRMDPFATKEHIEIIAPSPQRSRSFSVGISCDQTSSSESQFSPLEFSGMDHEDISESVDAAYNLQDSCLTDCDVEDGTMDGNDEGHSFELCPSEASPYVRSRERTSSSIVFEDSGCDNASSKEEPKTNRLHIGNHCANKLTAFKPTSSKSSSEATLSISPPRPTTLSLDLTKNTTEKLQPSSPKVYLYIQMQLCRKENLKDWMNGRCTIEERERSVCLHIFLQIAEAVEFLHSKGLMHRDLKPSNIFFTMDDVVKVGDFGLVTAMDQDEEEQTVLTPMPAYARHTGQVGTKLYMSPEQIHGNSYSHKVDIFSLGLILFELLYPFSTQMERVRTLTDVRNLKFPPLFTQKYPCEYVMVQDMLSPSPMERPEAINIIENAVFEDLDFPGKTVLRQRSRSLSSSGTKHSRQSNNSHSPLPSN

[13] = Drug uptake in Harlan nu/nu mouse brain at 240 mg/kg, po administered per day for 2 weeks measured 6 hrs post last dose by LC-MS/MS analysis; format: ADME, organism-based; settings: read-out: Drug uptake
KARPAS-299 = settings: Homo sapiens
Description: Antitumor activity against human KARPAS299 cells xenografted in SCID mouse assessed as tumor growth inhibition at 30 to 60 mg/kg, po bid administered for 10 days

CN1CCN(c2ccc(C(=O)Nc3n[nH]c4ccc(Cc5cc(F)cc(F)c5)cc34)c(NC3CCOCC3)c2)CC1 [ENTRECTINIB]
CLint scaled [1]: 87 mL/min/kg | half-life [2]: 176 min | Cmax [3]: 11 µM | half-life [4]: 210 min | Cmax [5]: 500 nM | Tmax [6]: 3.08 h | clearance [7]: 17.5 mL/min/kg | IC50 (NCI-H2228): 68 nM | IC50 [8]: 81 nM | IC50 [9]: > 1000 nM | IC50 [10]: > 10 µM | IC50 [11]: > 10 µM | IC50 [12]: > 10 µM | concentration at 6 h [13]: 1940 nM | TGI (KARPAS-299): Active

— ChEMBL document CHEMBL3804811 (J Med Chem, 2016)
